Reference: patent publication US20250241310A1, “METHODS AND COMPOSITION FOR CONTROLLING PESTS” (UPL CORPORATION LIMITED, priority 2021, published 2025)

Assays:
Assay type in all cases: in vivo
[1] = tested on: Corn leafhopper (Dalbulus maidis); experiment: Field trial, % control of adult corn leafhopper per plant
Protocol: Trials were carried out in field to assess efficacy of flupyrimin against Corn leafhopper (Dalbulus maidis). Evaluation was done to check % control of adult insects per plant at different dosage at 3 days after emergence and 7 days after emergence.

[2] = tested on: corn rootworm (Diabrotica virgifera virgifera); experiment: Field trial, seed treatment, efficacy against corn rootworm (% control and root damage index); details: for Damage Index: scale 1-6, corn roots
Protocol: Trials were carried out in field to assess efficacy of flupyrimin against corn rootworm (Diabrotica virgifera virgifera). Seeds were treated with flupyrimin before sowing. Evaluation was done to check % control of said insects at different dosage. Soil Texture=clay loam, pH=6.89, OM %=3.29.
Further, the damage index (Scale 1-6) at different concentrations was evaluated.
Assessment of the amount of damage by larval feeding of D. virgifera on corn roots were made by digging out the root system taking a diameter of approximately 25 cm to a depth of 15 cm. The root systems were then washed so that all crown roots were fairly clean. Damage on the root systems was assessed on 10 plants per plot (40 plants per treatment) using a scale as the following: • 1.0=no feeding damage; • 1.5=visible feeding scars present (not illustrated, but similar to a rating of two); • 2.0=up to three roots pruned slightly; • 2.5=more than three roots pruned, but none chewed to within 4 cm of plant; • 3.0=one to three roots chewed to within 4 cm of plant; • 3.5=more than three roots chewed to within 4 cm of plant; • 4.0=one entire node or equivalent number of roots destroyed • 4.5=about 1.5 nodes destroyed • 5.0=two nodes destroyed • 5.5=about 2.5 nodes destroyed • 6.0=three or more nodes completely destroyed (not illustrated, but similar to a rating of five)

[3] = tested on: seed corn maggot (Delia platura); experiment: Field trial, seed treatment, pest severity of seed corn maggot
Protocol: Trials were carried out in field to assess efficacy of flupyrimin against seed corn maggot (Delia platura). Seeds were treated with flupyrimin before sowing. Evaluation was done to evaluate pest severity of said insects at different dosage. Soil Texture=fine sandy loam, pH=7, OM %=0.8.

[4] = tested on: fall army worm (Spodoptera frugiperda); experiment: Field trial in corn plantation, % control of fall army worm, flupyrimin alone
Protocol: Trials were carried out in the field to assess efficacy of flupyrimin against fall army worm (Spodoptera frugiperda) in corn plantation. Evaluation was done to check % control of said insects at different dosage for 3, 7, 10, 14 DAA for 1st application and 3, 7, 10, 14, 21, 28, 35, and 42 DAA for 2nd application. The rate of application was 500 lit/ha.

SMILES: O=C(/N=c1\ccccn1Cc1ccc(Cl)nc1)C(F)(F)F [Flupyrimin, N-[(E)-1-(6-chloro-3-pyridinylmethyl)pyridin-2 (1H)-ylidene]-2,2,2-trifluoroacetamide]
- % Control ([1]; 100 g ai/100 kg, rate 0.2 Kg-L/ha, 3 DAE): 65%
- % Control ([1]; 100 g ai/100 kg, rate 0.2 Kg-L/ha, 7 DAE): 50%
- % Control ([1]; 200 g ai/100 kg, rate 0.4 Kg-L/ha, 3 DAE): 50.91%
- % Control ([1]; 200 g ai/100 kg, rate 0.4 Kg-L/ha, 7 DAE): 45.83%
- % Control ([1]; 300 g ai/100 kg, rate 0.6 Kg-L/ha, 3 DAE): 86.93%
- % Control ([1]; 300 g ai/100 kg, rate 0.6 Kg-L/ha, 7 DAE): 47.02%
- % Control ([1]; 500 g ai/100 kg, rate 1.0 Kg-L/ha, 3 DAE): 80%
- % Control ([1]; 500 g ai/100 kg, rate 1.0 Kg-L/ha, 7 DAE): 63.69%
- control of corn leafhopper (in words) ([1]; summary of Table 4): good control
- Damage Index ([2]; 100 g/100 kg of seeds): 2.3
- Damage Index ([2]; 200 g/100 kg of seeds): 1.8
- Damage Index ([2]; 300 g/100 kg of seeds): 1.1
- Damage Index ([2]; 400 g/100 kg of seeds): 1
- Damage Index ([2]; 500 g/100 kg of seeds): 1
- % Control ([2]; seed treatment 100 g/100 kg of seeds): 49.39%
- % Control ([2]; seed treatment 200 g/100 kg of seeds): 70.4%
- % Control ([2]; seed treatment 300 g/100 kg of seeds): 96.38%
- % Control ([2]; seed treatment 400 g/100 kg of seeds): 99.36%
- % Control ([2]; seed treatment 500 g/100 kg of seeds): 100%
- insect control against corn rootworm (in words) ([2]; summary of Table 1): good insect control
- reduction of root damage (in words) ([2]; summary of Table 2, different concentrations): efficacious in reducing the damage
- Pest severity ([3]; 100 g/100 kg of seeds, 14 DP): 0.2
- Pest severity ([3]; 100 g/100 kg of seeds, 28 DP): 4.3
- Pest severity ([3]; 100 g/100 kg of seeds, 35 DP): 4.8
- Pest severity ([3]; 100 g/100 kg of seeds, 42 DP): 5.9
- Pest severity ([3]; 200 g/100 kg of seeds, 14 DP): 0
- Pest severity ([3]; 200 g/100 kg of seeds, 28 DP): 0.7
- Pest severity ([3]; 200 g/100 kg of seeds, 35 DP): 0.9
- Pest severity ([3]; 200 g/100 kg of seeds, 42 DP): 1.8
- Pest severity ([3]; 300 g/100 kg of seeds, 14 DP): 0
- Pest severity ([3]; 300 g/100 kg of seeds, 28 DP): 0.3
- Pest severity ([3]; 300 g/100 kg of seeds, 35 DP): 0.5
- Pest severity ([3]; 300 g/100 kg of seeds, 42 DP): 0.9
- Pest severity ([3]; 400 g/100 kg of seeds, 14 DP): 0
- Pest severity ([3]; 400 g/100 kg of seeds, 28 DP): 0.3
- Pest severity ([3]; 400 g/100 kg of seeds, 35 DP): 0.5
- Pest severity ([3]; 400 g/100 kg of seeds, 42 DP): 1.1
- Pest severity ([3]; 500 g/100 kg of seeds, 14 DP): 0
- Pest severity ([3]; 500 g/100 kg of seeds, 28 DP): 0
- Pest severity ([3]; 500 g/100 kg of seeds, 35 DP): 0
- Pest severity ([3]; 500 g/100 kg of seeds, 42 DP): 0.3
- efficacy against seed corn maggot (in words) ([3]; summary of Table 3): effective
- % Control ([4]; post 1st application, 150 g a.i./ha, 3 DAA): 27.8%
- % Control ([4]; post 1st application, 150 g a.i./ha, 7 DAA): 29.1%
- % Control ([4]; post 1st application, 150 g a.i./ha, 10 DAA): 28.1%
- % Control ([4]; post 1st application, 150 g a.i./ha, 14 DAA): 24.4%
- % Control ([4]; post 1st application, 200 g a.i./ha, 3 DAA): 32.8%
- % Control ([4]; post 1st application, 200 g a.i./ha, 7 DAA): 34.1%
- % Control ([4]; post 1st application, 200 g a.i./ha, 10 DAA): 33.7%
- % Control ([4]; post 1st application, 200 g a.i./ha, 14 DAA): 29.5%
- % Control ([4]; post 1st application, 250 g a.i./ha, 3 DAA): 38.1%
- % Control ([4]; post 1st application, 250 g a.i./ha, 7 DAA): 40.1%
- % Control ([4]; post 1st application, 250 g a.i./ha, 10 DAA): 36.7%
- % Control ([4]; post 1st application, 250 g a.i./ha, 14 DAA): 32.9%
- % Control ([4]; post 2nd application, 150 g a.i./ha, 3 DAA): 28.3%
- % Control ([4]; post 2nd application, 150 g a.i./ha, 7 DAA): 30.4%
- % Control ([4]; post 2nd application, 150 g a.i./ha, 10 DAA): 31.8%
- % Control ([4]; post 2nd application, 150 g a.i./ha, 14 DAA): 32.6%
- % Control ([4]; post 2nd application, 150 g a.i./ha, 21 DAA): 29.9%
- % Control ([4]; post 2nd application, 150 g a.i./ha, 28 DAA): 28.9%
- % Control ([4]; post 2nd application, 150 g a.i./ha, 35 DAA): 27.3%
- % Control ([4]; post 2nd application, 150 g a.i./ha, 42 DAA): 27.1%
- % Control ([4]; post 2nd application, 200 g a.i./ha, 3 DAA): 35.6%
- % Control ([4]; post 2nd application, 200 g a.i./ha, 7 DAA): 35.3%
- % Control ([4]; post 2nd application, 200 g a.i./ha, 10 DAA): 36.3%
- % Control ([4]; post 2nd application, 200 g a.i./ha, 14 DAA): 35.3%
- % Control ([4]; post 2nd application, 200 g a.i./ha, 21 DAA): 34.5%
- % Control ([4]; post 2nd application, 200 g a.i./ha, 28 DAA): 34.5%
- % Control ([4]; post 2nd application, 200 g a.i./ha, 35 DAA): 33.7%
- % Control ([4]; post 2nd application, 200 g a.i./ha, 42 DAA): 33.3%
- % Control ([4]; post 2nd application, 250 g a.i./ha, 3 DAA): 41.4%
- % Control ([4]; post 2nd application, 250 g a.i./ha, 7 DAA): 42.7%
- % Control ([4]; post 2nd application, 250 g a.i./ha, 10 DAA): 43.7%
- % Control ([4]; post 2nd application, 250 g a.i./ha, 14 DAA): 44.4%
- % Control ([4]; post 2nd application, 250 g a.i./ha, 21 DAA): 41.4%
- % Control ([4]; post 2nd application, 250 g a.i./ha, 28 DAA): 38.8%
- % Control ([4]; post 2nd application, 250 g a.i./ha, 35 DAA): 38.1%
- % Control ([4]; post 2nd application, 250 g a.i./ha, 42 DAA): 37.9%
